Reference: US20030166605A1, “Method of minimizing damage to heart tissue during cardiac surgery and cardiac transplantation” (priority 1999, published 2003)
Read-outs that look alike come from different tables or passages of the source.

Type: in vivo
Conditions: for Cardiac Index, slope of percentage change from baseline (Slope ± SE) / Pulmonary capillary wedge pressure, slope of percentage change from baseline (Slope ± SE) / Systolic Blood Pressure, slope of percentage change from baseline (Slope ± SE): per hour; for Cardiac Index, slope of percentage change from baseline (Slope ± SE) / Pulmonary capillary wedge pressure, slope of percentage change from baseline (Slope ± SE) / Systolic Blood Pressure, slope of percentage change from baseline (Slope ± SE) / Heart Rate, slope of percentage change from baseline (Slope ± SE): first 24 postoperative hours; for Heart Rate, slope of percentage change from baseline (Slope ± SE): percentage change per hour; for absolute mean heart rate: 24 hours after surgery; for patients who received dopamine / use of any inotropic agent: first 7 days after surgery; for patients who received dopamine: placebo 77%; for use of any inotropic agent: placebo 79%; for insertions of an intraaortic balloon pump for low cardiac output: nine in placebo group; for death rate: placebo 6.0%
Experimental: A double blind, placebo controlled trial was performed on 253 patients randomized into three groups. The objective of the study was to evaluate the safety, tolerance and efficacy of adenosine in patients undergoing coronary artery bypass surgery. Inadequate myocardial protection in patients undergoing coronary artery bypass surgery contributes to overall hospital mortality and morbidity.
The treatments included the intraoperative administration of cold blood cardioplegia, blood cardioplegia including 500 μM adenosine (“low dose adenosine”), and blood cardioplegia including 200 mM adenosine (“high dose adenosine”). Patients receiving adenosine were also given an infusion of adenosine (200 μg/kg/min) 10 minutes before and 15 minutes after removal of the aortic crossclamp. Invasive and non-invasive measurements of ventricular performance were obtained before, during and after surgery.
Exclusion criteria included known or suspected pregnancy, known hypersensitivity to adenosine, and enrollment in another clinical trial study.
Study Design: 253 patients were split into three groups. Group A patients (n=84) received placebo and were given standard hyperkalemic cold blood cardioplegia. Group B patients (low dose adenosine, n=84) were given hyperkalemic cold blood cardioplegia containing 500 μM adenosine. Group C patients (high dose adenosine) were given hyperkalemic cold blood cardioplegia containing 200 mM adenosine. The patients who received adenosine cardioplegia were also exposed to a 10 minute infusion of adenosine pre-treatment (200 μg/kg/min) immediately before application of the aortic crossclamp and a 15 minute infusion of adenosine immediately after removing the crossclamp.
Before surgery, patients were evaluated for the degree of ischemic disease by history, echocardiography, and cardiac catheterization. In the operating room, hemodynamic measurements were obtained and recorded just before initiating cardiopulmonary bypass and 15, 30, 45 and 60 minutes and 2, 3, 4, 5, and 8 hours after cessation of bypass. In patients requiring intravenous inotropic medications in the postoperative period, hemodynamic monitoring was continued with measurements of specified parameters every 2 hours for 24 hours, and then every 4 hours until the inotropic medications were discontinued or it was ascertained that monitoring was no longer helpful in the management of the patient.
Invasive hemodynamic measurements included systolic blood pressure, heart rate, central venous pressure, pulmonary artery pressure, pulmonary capillary wedge pressure and cardiac output. The cardiac index, stroke volume, systemic vascular resistance, pulmonary vascular resistance, right ventricular stroke work index and left ventricular stroke index were derived. The cardiac output measurements were obtained using a thermodilution catheter and computer. Noninvasive heart function studies included 12-lead electrocardiograms, preoperative stress dobutamine echocardiography, and pre- and post-operative transthoracic and transesophageal echocardiograms. Patients were monitored from the time of enrollment to follow-up 4 to 6 weeks after discharge from the hospital. This included routine blood work and chemistries, arterial blood gases, pH, creatine kinase (CK)-MB concentrations, and pulse oximetry.
The primary endpoints of the study were reduction in total dopamine use during the first 7 days, reduction in all inotropic support required during the first 7 days, reduction in the use of dopamine to less than 5 μg/kg/min.
There were 21 secondary endpoints, including improvement in postoperative hemodynamics, reduction in the use of the intraaortic balloon pump, reduction in the incidence of myocardial infarction, and decrease in the mortality rate.
All patients who received study treatment and underwent coronary bypass surgery were included in the intent-to-treat analysis. […]

[1] = Group B, low dose adenosine (500 μM cardioplegia + infusion)
[2] = Group C, high dose adenosine (200 mM cardioplegia + infusion)

Nc1ncnc2c1ncn2[C@@H]1O[C@H](CO)[C@@H](O)[C@H]1O [adenosine]
Cardiac Index, slope of percentage change from baseline (Slope ± SE) [1]: 1.130 ± 0.105
Pulmonary capillary wedge pressure, slope of percentage change from baseline (Slope ± SE) [1]: 0.688 ± 0.249
Systolic Blood Pressure, slope of percentage change from baseline (Slope ± SE) [1]: 0.387 ± 0.060
Heart Rate, slope of percentage change from baseline (Slope ± SE) (Group B, low dose adenosine (500 μM in cold blood cardioplegia + 200 μg/kg/min infusion)): 0.510 ± 0.078
Cardiac Index, slope of percentage change from baseline (Slope ± SE) [2]: 1.468 ± 0.112
Pulmonary capillary wedge pressure, slope of percentage change from baseline (Slope ± SE) [2]: −0.869 ± 0.288
Systolic Blood Pressure, slope of percentage change from baseline (Slope ± SE) [2]: 0.440 ± 0.063
Heart Rate, slope of percentage change from baseline (Slope ± SE) (Group C, high dose adenosine (200 mM in cold blood cardioplegia + 200 μg/kg/min infusion)): 0.820 ± 0.081
high-dose dopamine support (>5 μg/kg/min) (high dose adenosine group versus placebo): trend toward a decrease
absolute mean heart rate (high dose adenosine group): 96.8±5.4 beats per minute
patients who received dopamine (high dose adenosine group): 79%
use of any inotropic agent (high dose adenosine group): 80%
insertions of an intraaortic balloon pump for low cardiac output (high dose adenosine group): five
death rate (high dose adenosine group): 1.2%
postoperative MI rate (high dose adenosine group, placebo 9.5%): 1.2%
percentage of patients experiencing one of the composite adverse events (high dose dopamine, epinephrine use, intraaortic balloon pump, MI, death) (high dose adenosine versus placebo, p=0.006): lower
safety and tolerance (human, in vivo): safe and well tolerated
absolute mean heart rate (low dose adenosine group): 90.7±3.6 beats per minute
patients who received dopamine (low dose adenosine group): 71%
use of any inotropic agent (low dose adenosine group): 73%
insertions of an intraaortic balloon pump for low cardiac output (low dose adenosine group): two
death rate (low dose adenosine group): 3.6%
